Test results as given in patent US10745352B2, “Dual function molecules for histone deacetylase inhibition and ataxia telangiectasia mutated activation and methods of use thereof” (Shuttle Pharmaceuticals, Inc., priority 2015, dated 2020).

Tested on: ATM
Experiment: ATM activation: phospho-ATM (S1981) ELISA on the nuclear fraction of MCF7 cells
Format: cell-based, Human
Conditions: 1 μM, time course of 6 hours
Method: Several assays were utilized to determine the ability of the compounds of the invention to activate ATM over a period of time. […] The fold change in phospho-ATM was measured over a period of time. Accordingly, the increase in phospho-ATM indicates activation of ATM by the compounds of the invention.
In certain examples, the activity of the compounds of the invention was compared to additional modulators of ATM, such as […] (a specific ATM inhibitor); dimethylsulfoxide (DMSO) (a solvent); 3,3′-diindolylmethane (DIM) (an ATM activator); and irradiation (irradiation may result in the generation of phospho-ATM due to DNA damage). DIM was not used as a comparative compound in Example 5.
Materials: MCF7 Cells; Complete RPMI media: RPMI, 10% Fetal Bovine Serum (FBS), 5% L-glutamine, 5% Pen/Strep; R&D Systems Human P-ATM (S1981) DuoSet IC ELISA Assay Kit; Plate sealers; Normal mouse serum (heat inactivated 56 C for 30 min); 96-well ELISA microtiter plate; 450 nm Plate Reader; 60 mm dishes; Disposable pipettes; Pipet-aid; Pipette tips; Micro-pipetter; Cell scraper; Distilled water; Pierce NE-PER Nuclear and Cytoplasmic Extraction Reagent; Pierce Protease and Phosphotase Inhibitor Mini Tablets; KU-55933; DIM (not used in Example 5); Dimethyl sulfoxide (DMSO); Phosphate buffered saline (PBS); and Sterile micro-tubes and conical tubes; Hemocytometer; Microscope; Micro-centrifuge.
MCF7 Cells were grown in Complete RPMI media and 10^6 cells were seeded into 60 mm dishes. Dishes were then divided into duplicate treatments the following day. Control samples were treated with 3 ml RPMI media for 1 hr. Vehicle samples were treated with 3 ml RPMI media plus 0.1% DMSO for 1 hr. Negative control samples were treated with 10 μM KU-55933 in 3 ml RPMI media plus 0.1% DMSO for 1 Hr. Positive control samples were treated with 0.5 μM DIM in 3 ml RPMI media plus 0.1% DMSO for 30 min. Test Samples were treated with 1 μM of the test compounds (e.g. N-(6-(hydroxyamino)-6-oxohexyl)-1H-indole-2-carboxamide in Example 5) in 3 ml RPMI media plus 0.1% DMSO for 30 min; 1 hr; 2 hrs; 4 hrs; and 6 hrs. At their designated time, samples were harvested on ice using a cell scraper and two washes of 1 ml PBS and kept as a cell pellet on dry ice until all were collected. After all samples were collected they were thawed on ice and separated into cytosolic and nuclear fractions using the Pierce NE-PER Nuclear and Cytoplasmic Extraction Reagent kit with added Pierce protease and phosphotase inhibitor tablet.
After recovery of the separate fractions, the process further included washing cells by suspending the cell pellet with PBS. 1-10×10^6 cells were transferred to a 1.5 mL microcentrifuge tube and a pellet was formed by centrifugation at 500×g for 2-3 minutes. […]

With `Cc1c(C(=O)NCCCCCC(=O)NO)[nH]c2ccccc12` [SP-1-161, N-(6-(hydroxyamino)-6-oxohexyl)-3-methyl-1H-indole-2-carboxamide] as the molecule, how does the “ATM activation (level of ATM phosphorylation, phospho-ATM)” value read?
Its value is “exemplary ATM activation activity”.
